Test [1] addresses angiotensin I converting enzyme (ACE) (Homo sapiens, UniProt P12821). Description: biochemical. The conditions noted are these: for IC50: IC50 (μM), synthetic peptides, tested in triplicate, deduced from linearized inhibition curve; for inhibition at 50 µM: primary amine or captopril concentration equal to 50 μM, chromatographic peaks collected from trypsic hydrolysate of αS2 casein, tested twice.

Test [2] deals with angiotensin I converting enzyme (Homo sapiens, UniProt P12821). The conditions noted are these: Maeno et al. (13); read-out: IC50, quantity of peptide needed for inhibiting 50% of the enzyme activity; cited from earlier work.
angiotensin I converting enzyme, sequence (P12821 30-1306): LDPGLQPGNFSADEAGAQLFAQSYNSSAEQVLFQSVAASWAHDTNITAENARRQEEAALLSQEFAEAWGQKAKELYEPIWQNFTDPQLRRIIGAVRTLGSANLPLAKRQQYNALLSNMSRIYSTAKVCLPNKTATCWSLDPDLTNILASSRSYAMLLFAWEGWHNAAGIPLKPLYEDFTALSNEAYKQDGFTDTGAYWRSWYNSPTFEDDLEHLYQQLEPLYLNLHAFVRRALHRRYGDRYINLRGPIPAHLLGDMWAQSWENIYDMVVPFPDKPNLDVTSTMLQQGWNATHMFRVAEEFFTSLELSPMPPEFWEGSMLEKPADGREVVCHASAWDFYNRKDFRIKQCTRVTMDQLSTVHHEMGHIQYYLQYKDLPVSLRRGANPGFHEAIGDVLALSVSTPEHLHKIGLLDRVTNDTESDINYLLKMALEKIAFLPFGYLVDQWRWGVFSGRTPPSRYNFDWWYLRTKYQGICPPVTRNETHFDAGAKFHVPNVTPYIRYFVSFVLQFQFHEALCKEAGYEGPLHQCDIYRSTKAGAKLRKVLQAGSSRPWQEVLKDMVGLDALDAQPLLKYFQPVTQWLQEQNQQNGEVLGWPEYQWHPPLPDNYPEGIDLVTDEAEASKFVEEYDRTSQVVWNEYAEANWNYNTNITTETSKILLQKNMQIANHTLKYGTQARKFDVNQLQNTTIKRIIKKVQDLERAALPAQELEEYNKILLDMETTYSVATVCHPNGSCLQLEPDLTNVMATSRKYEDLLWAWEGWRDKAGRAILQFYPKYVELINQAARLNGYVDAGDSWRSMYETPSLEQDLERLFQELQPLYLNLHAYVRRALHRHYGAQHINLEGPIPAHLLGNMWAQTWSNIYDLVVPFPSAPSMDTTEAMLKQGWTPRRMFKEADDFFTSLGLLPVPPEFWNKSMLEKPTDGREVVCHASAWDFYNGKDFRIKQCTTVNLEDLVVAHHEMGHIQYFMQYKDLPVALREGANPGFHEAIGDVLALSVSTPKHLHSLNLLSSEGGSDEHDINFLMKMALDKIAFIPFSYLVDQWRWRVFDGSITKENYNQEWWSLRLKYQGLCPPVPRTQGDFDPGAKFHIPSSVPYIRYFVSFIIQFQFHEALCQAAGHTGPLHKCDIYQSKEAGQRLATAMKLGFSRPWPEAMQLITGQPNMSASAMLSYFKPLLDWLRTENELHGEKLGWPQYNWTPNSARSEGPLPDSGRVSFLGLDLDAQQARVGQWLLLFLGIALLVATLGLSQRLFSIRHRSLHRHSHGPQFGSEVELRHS
Test [3] deals with spontaneously hypertensive rats. The conditions noted are these: 6 hours after oral administration of 1 mg synthesized peptide per kg, Maeno et al. (13); cited from earlier work.
The subject of test [4] is bacteria. The note with it: Zucht et al. (10); Recio and Visser (11); cited from earlier work.

Values joined by “and” are separate entries in the source; they are usually repeats but may differ in a detail not shown here. Equal values may be shown once. Residues, ends and D or L forms follow the SMILES beside them. Some results are limits rather than exact numbers.

angiotensin I converting enzyme (ACE), sequence (P12821 30-1306, species assumed): as the sequence (P12821 30-1306) above

In test [1], `CC(C)C[C@H](NC(=O)[C@H](C)NC(=O)[C@@H](N)Cc1ccccc1)C(=O)N1CCC[C@H]1C(=O)O` [CNαS2-(f174-177), Phe-Ala-Leu-Pro] (H-FALP-OH) returned an IC50 of less than 60 µM. As for “CNαS2-(f198-202): αS2 casein peptide 198-202, ACE inhibitor reported by Maeno et al. (13) (TKVIP; UniProt P02663 213-217, looked up, fragment)”, the IC50 in test [2] was 400 µM. In addition, the “antihypertensive effect in vivo” value in test [3] was “do not present any significant antihypertensive effect”. Turning to `CC[C@H](C)[C@H](NC(=O)[C@H](CCC(=O)O)NC(=O)[C@H](CC(N)=O)NC(=O)[C@H](CC(C)C)NC(=O)[C@H](C)N)C(=O)N[C@@H](CC(N)=O)C(=O)N[C@@H](CCC(N)=O)C(=O)N[C@@H](Cc1ccccc1)C(=O)N[C@@H](Cc1ccc(O)cc1)C(=O)O` [CNαS2-(f81-89)] (H-ALNEINQFY-OH; N-terminus and C-terminus assumed), 50 µM produced 32.2% inhibition in test [1]. In the case of “CNαS2-(f190-197): αS2 casein peptide 190-197, ACE inhibitor reported by Maeno et al. (13) (MKPWIQPK; UniProt P02663 205-212, looked up, fragment)”, the IC50 in test [2] is 300 µM. Also, the “antihypertensive effect in vivo” value in test [3] is “do not present any significant antihypertensive effect”. With `CC(C)C[C@H](NC(=O)[C@H](Cc1ccc(O)cc1)NC(=O)[C@H](CCC(N)=O)NC(=O)[C@@H]1CCCN1C(=O)[C@H](CC(C)C)NC(=O)[C@H](C)NC(=O)[C@@H](N)Cc1ccccc1)C(=O)N[C@@H](CCCCN)C(=O)O` [CNαS2-(f174-181)] (H-FALPQYLK-OH; N-terminus and C-terminus assumed), in test [1], the IC50 was < 60 µM and 4.3 µM; the inhibition at 50 µM was more than 70%. Take `CC(C)[C@H](NC(=O)[C@@H](N)[C@@H](C)O)C(=O)N[C@@H](Cc1ccc(O)cc1)C(=O)O` [CNαS2-(f182-184), Thr-Val-Tyr] (H-Thr-Val-Tyr-OH; N-terminus and C-terminus assumed): in test [1], the IC50 was less than 60 µM and the inhibition at 50 µM was more than 70%. For `CC[C@H](C)[C@H](NC(=O)[C@H](C)NC(=O)[C@H](CCSC)NC(=O)[C@@H](N)CC(N)=O)C(=O)N[C@@H](CC(N)=O)C(=O)N1CCC[C@H]1C(=O)N[C@@H](CO)C(=O)N[C@@H](CCCCN)C(=O)O` [CNαS2-(f25-32)] (H-NMAINPSK-OH; N-terminus and C-terminus assumed), in test [1], the IC50 is less than 60 µM and the inhibition at 50 µM was 42.5%. With `CC(C)C[C@H](NC(=O)[C@H](C)NC(=O)[C@@H](N)Cc1ccccc1)C(=O)N1CCC[C@H]1C(=O)N[C@@H](CCC(N)=O)C(=O)N[C@@H](Cc1ccc(O)cc1)C(=O)O` [CNαS2-(f174-179), Phe-Ala-Leu-Pro-Gln-Tyr] (H-FALPQY-OH; N-terminus and C-terminus assumed), in test [1], the IC50 is < 60 µM and 4.3 µM; the inhibition at 50 µM is more than 70%. As for “CNαS2-(f164-179): αS2 casein peptide with antibacterial activity, Recio and Visser (11) (LKKISQRYQKFALPQY; UniProt P02663 179-194, looked up, fragment)”, the antibacterial activity result in test [4] was “antibacterial activity”. `CC(C)C[C@H](NC(=O)[C@H](Cc1ccc(O)cc1)NC(=O)[C@H](CCC(N)=O)NC(=O)[C@@H]1CCCN1C(=O)[C@@H](N)Cc1ccccc1)C(=O)N[C@@H](CCC(N)=O)C(=O)N[C@@H](Cc1ccc(O)cc1)C(=O)O` [CNαS2-(f92-98), Phe-Pro-Gln-Tyr-Leu-Gln-Tyr] (H-FPQYLQY-OH; N-terminus and C-terminus assumed): in test [1], the half-inhibitory concentration (IC50) was less than 60 µM and the inhibition at 50 µM is more than 70%. Consider “CNαS2-(f189-193): αS2 casein peptide 189-193, ACE inhibitor reported by Maeno et al. (13) (AMKPW; UniProt P02663 204-208, looked up, fragment)”, for which the IC50 in test [2] was 580 µM. Also, the “antihypertensive effect in vivo” value in test [3] is on record as “do not present any significant antihypertensive effect”. Regarding “CNαS2-(f165-203): αS2 casein peptide with antibacterial activity, Zucht et al. (10) (KKISQRYQKFALPQYLKTVYQHQKAMKPWIQPKTKVIPY; UniProt P02663 180-218, looked up, fragment)”, in test [4], the antibacterial activity entry is recorded as “antibacterial activity”. Turning to `CC[C@H](C)[C@H](NC(=O)[C@H](CCC(=O)O)NC(=O)[C@H](CC(N)=O)NC(=O)[C@H](CC(C)C)NC(=O)[C@H](C)N)C(=O)N[C@@H](CC(N)=O)C(=O)N[C@@H](CCC(N)=O)C(=O)N[C@@H](Cc1ccccc1)C(=O)N[C@@H](Cc1ccc(O)cc1)C(=O)N[C@@H](CCC(N)=O)C(=O)N[C@@H](CCCCN)C(=O)O` [CNαS2-(f81-91)] (H-ALNEINQFYQK-OH; N-terminus and C-terminus assumed), in test [1], the inhibition at 50 µM stood at 27.2%. For the compound `CC[C@H](C)[C@H](NC(=O)[C@H](C)NC(=O)[C@H](CCSC)NC(=O)[C@@H](N)CC(N)=O)C(=O)N[C@@H](CC(N)=O)C(=O)N1CCC[C@H]1C(=O)O` [CNαS2-(f25-30), Asn-Met-Ala-Ile-Asn-Pro] (H-NMAINP-OH), in test [1], the IC50 is less than 60 µM.
